From patent US10144742B2 (Millennium Pharmaceuticals, Inc., priority 2014, dated 2018) come the findings set out here.

For one assay, the target named is hNAMPT protein (Homo sapiens (Human), UniProt P43490). The assay is described as follows: NAMPT enzyme assay (TR-FRET/HTRF, BodiPY ligand, anti 6His-Tb). The format is binding. Conditions: for IC50: NAMPT IC50 range class, read-out: IC50; for inhibition at 1 µM: compound concentration 1 μM, read-out: Percent Inhibition. The source says: As discussed above, the invention provides compounds that are useful as inhibitors of the enzyme NAMPT. The NAMPT inhibition of a compound of the invention can be measured using a variety of methods known in the art. For example, the ability of a compound of the invention to inhibit NAMPT enzyme activity can be measured using a homogeneous time resolved fluorescence (HTRF) assay using hNAMPT protein and anti 6His-Tb in buffer treated with a compound of the invention (or control e.g., DMSO) and BodiPY ligand. The TR-FRET signal can be measured using a high throughput microplate reader (e.g., Pherastar). Excitation can be carried out at 320 nm. The percent inhibition value at a single concentration of compound of the invention can be calculated relative to a control treated sample. A concentration response curve can be generated for each compound of the invention and the curve fitted to generate an IC50 value. […] Cat. No. […] To this solution is added test compounds or vehicle control (DMSO) and BodiPY ligand (structure below). The plate is shaken for 1-2 min, sealed and incubated for 1 hour at rt in the dark. The TR-FRET signal is measured using BMG Pherastar (Lanthascreen protocol on BMG Pherastar). Excitation was carried out at 320 nm, and the ratio of emission of BodiPY (520 nm) to terbium (486 nm) was determined. Concentration response curves are generated by calculating the excitation increase in test compound-treated samples relative to DMSO-treated controls. For the assay method described above, test compound percent inhibition values at a single concentration are calculated relative to control (DMSO) treated samples. Compound concentration response curves are fitted to generate IC50 values from those curves. One skilled in the art will appreciate that these values generated either as percentage inhibition at a single concentration or IC50 values are subject to experimental variation.
For orientation: In TR-FRET formats the signal depends on donor and acceptor labels being close together.

Another assay relates to PC3 cells. Description: PC3 growth inhibition (Cell-titer glo, 72 hours). The format is cell-based. Conditions: Homo sapiens, PC-3, PC3 cells, 72 hours, Cell-titer glo, read-out: Percent Inhibition (PC3 growth inhibition); for inhibition at 1 µM: compound concentration 1 μM; for inhibition at 1.667 µM: compound concentration 1.667 μM. As to the method:
The ability of a compound of the invention to inhibit the growth of cells can be measured using a variety of methods known in the art. For example, the ability of a compound of the invention to inhibit the growth of PC3 cells can be measured. PC3 cells can be plated and incubated overnight under CO2. For each measurement, a compound of the invention (or vehicle e.g., DMSO) can be diluted with AIM serum free medium and added to the cell plate. The cell plate can then be incubated for 72 h under CO2. Cell-titer glo solution can be added and the plates can be incubated protected from light and the amount of luminescences can be measured. Concentration response curves can be generated by calculating the luminescence increase in test compound treated samples relative to DMSO-treated controls. Percentage remaining viability values at a single concentration can be measured. Growth inhibition (GI50) or cell viability (LD50) values can be determined from those curves.
Compounds of the invention were assayed to measure PC3 growth inhibition at a concentration of 1 μM or 1.667 μM (Table 3). To measure PC3 growth inhibition, PC3 cells that were maintained in PRMI1640 growth medium (Life Technologies; Cat. No. 11875) at 37° C. under 5% CO2 are trypsinized and diluted at a density of 8×10^4 cells/ml, 25 ul per well of cells and plated in 384-well black tissue culture plate. The cells are incubated overnight at 37° C. under 5% CO2. For each measurement, a test compounds or vehicle control (DMSO) are diluted with AIM serum free medium and added to the cell plate. Incubate for 72 hours at 37° C. under 5% CO2. 25 μl Cell-titer glo solution (Promega; Cat. No. G8462) is added and the cell plates are incubated for 10 minutes protected from light. The luminescence is measured. Concentration response curves are generated by calculating the luminescence increase in test compound-treated samples relative to DMSO-treated controls. Percentage remaining viability values at a single concentration, growth inhibition (GI50) or cell viability (LD50) values are determined from those curves. One skilled in the art will appreciate that these values are subject to experimental variation.

Sequence of hNAMPT protein (P43490 whole entry): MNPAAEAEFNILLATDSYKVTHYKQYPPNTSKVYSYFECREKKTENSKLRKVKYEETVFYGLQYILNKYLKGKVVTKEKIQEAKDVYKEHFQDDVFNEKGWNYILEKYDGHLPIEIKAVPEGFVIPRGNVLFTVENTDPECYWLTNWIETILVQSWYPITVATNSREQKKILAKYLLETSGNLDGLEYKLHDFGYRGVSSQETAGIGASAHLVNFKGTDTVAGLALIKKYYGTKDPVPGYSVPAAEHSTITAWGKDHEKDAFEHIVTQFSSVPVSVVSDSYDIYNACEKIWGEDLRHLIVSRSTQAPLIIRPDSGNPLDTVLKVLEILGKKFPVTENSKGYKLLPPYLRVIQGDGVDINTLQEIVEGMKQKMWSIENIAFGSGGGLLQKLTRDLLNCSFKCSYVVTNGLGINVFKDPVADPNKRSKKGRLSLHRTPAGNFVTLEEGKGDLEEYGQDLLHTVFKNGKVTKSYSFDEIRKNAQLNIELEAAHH

Regarding `O=C(NCCCn1nnnc1S)c1ccc2nc(-c3ccc(F)cc3)c(-c3ccc(F)cc3)nc2c1` [Compound I-8, 2,3-bis(4-fluorophenyl)-N-[3-(5-sulfanyl-1H-tetrazol-1-yl)propyl]quinoxaline-6-carboxamide], at hNAMPT protein, the IC50 (commonly the concentration that gives 50% inhibition) was in the range of 1000 to 2000 nM and the inhibition (usually the drop in the measured response relative to a control, in per cent) at 1 µM is 43%. Also, the inhibition at 1 µM in the assay on PC3 cells was 103%.
For `Cc1nc(C)c(-c2nc3cc(C(=O)NCCCn4ccnc4)ccc3nc2-c2ccccc2)s1` [Compound I-9, 3-(2,4-dimethyl-1,3-thiazol-5-yl)-N-[3-(1H-imidazol-1-yl)propyl]-2-phenylquinoxaline-6-carboxamide] the same measures were 1000 to 2000 nM, 36% and 1%.
Taken in the same sequence, the figures for `NCc1nc2ccc(C(=O)NCCCn3ccnc3)cc2nc1-c1ccccc1` [Compound I-10, 2-(aminomethyl)-N-[3-(1H-imidazol-1-yl)propyl]-3-phenylquinoxaline-6-carboxamide] were 2000 to 10000 nM, 23% and 99%.
For `O=C(NCCCn1ccnc1)c1ccc2nc(N3Cc4ccccc4C3)c(-c3ccccc3)nc2c1` [Compound I-11, 2-(1,3-dihydro-2H-isoindol-2-yl)-N-[3-(1H-imidazol-1-yl)propyl]-3-phenylquinoxaline-6-carboxamide] the same measures were 100 to 500 nM, 85% and -7%.
With `COc1cccc(-c2nc3cc(C(=O)NCCCc4ncc[nH]4)ccc3nc2N2CCC(O)CC2)c1` [Compound I-12, 2-(4-hydroxypiperidin-1-yl)-N-[3-(1H-imidazol-2-yl)propyl]-3-(3-methoxyphenyl)quinoxaline-6-carboxamide], at hNAMPT protein, the IC50 was under 100 nM and the inhibition at 1 µM is over 99%. In the assay with PC3 cells, the inhibition at 1.667 µM came out at 2%.
As to `COc1ccccc1-c1nc2ccc(C(=O)NCCCn3ccnc3)cc2nc1-c1ccccc1` [Compound I-13, N-[3-(1H-imidazol-1-yl)propyl]-2-(2-methoxyphenyl)-3-phenylquinoxaline-6-carboxamide], at hNAMPT protein, the 50% inhibitory concentration (IC50) lay within 100 to 500 nM and the inhibition at 1 µM came to 69%. Further, in the assay with PC3 cells, the inhibition at 1 µM was -6%.
For `O=C(NCCCn1ccnc1)c1ccc2nc(-c3ccccc3)c(N3CCS(=O)(=O)CC3)nc2c1` [Compound I-14, 3-(1,1-dioxidothiomorpholin-4-yl)-N-[3-(1H-imidazol-1-yl)propyl]-2-phenylquinoxaline-6-carboxamide] the same measures were 2000 to 10000 nM, 17% and -3%.
Taken in the same sequence, the figures for `O=C(NCCCn1ccnc1)c1ccc2nc(-c3ccccc3)c(N3CCC4(COC4)C3)nc2c1` [Compound I-15, N-[3-(1H-imidazol-1-yl)propyl]-3-(2-oxa-6-azaspiro[3.4]oct-6-yl)-2-phenylquinoxaline-6-carboxamide] were 2000 to 10000 nM, 15% and -6%.
Take `O=C(NCc1ccc2[nH]ncc2c1)c1ccc2nc(N3CCOCC3)c(-c3ccc(F)cc3)nc2c1` [Compound I-16, 3-(4-fluorophenyl)-N-(1H-indazol-5-ylmethyl)-2-(morpholin-4-yl)quinoxaline-6-carboxamide]: at hNAMPT protein, the IC50 fell in the range of 100 to 500 nM and the inhibition at 1 µM was determined as 84%. Further, the inhibition at 1.667 µM in the assay on PC3 cells is 39%.
`N#CC1CCN(c2nc3cc(C(=O)NCCCn4ccnc4)ccc3nc2-c2ccccc2)C1` (stereo not drawn) [Compound I-17, 3-(3-cyanopyrrolidin-1-yl)-N-[3-(1H-imidazol-1-yl)propyl]-2-phenylquinoxaline-6-carboxamide]: on hNAMPT protein, the IC50 was 2000 to 10000 nM and the inhibition at 1 µM worked out at 19%. Also, in the assay with PC3 cells, the inhibition at 1 µM turned out to be 4%.
With `O=C(NCCCc1ncc[nH]1)c1ccc2nc(N3CCC(N4CCOCC4)CC3)c(-c3ccccc3)nc2c1` [Compound I-18, N-[3-(1H-imidazol-2-yl)propyl]-2-[4-(morpholin-4-yl)piperidin-1-yl]-3-phenylquinoxaline-6-carboxamide], at hNAMPT protein, the IC50 was under 100 nM and the inhibition at 1 µM stood at 100%. In the assay with PC3 cells, the inhibition at 1.667 µM stood at 2%.
Consider `O=C(NCCCn1ccnc1)c1ccc2nc(-c3ccc(F)cc3)c(-c3ccc(F)cc3)nc2c1` [Compound I-19, 2,3-bis(4-fluorophenyl)-N-[3-(1H-imidazol-1-yl)propyl]quinoxaline-6-carboxamide], for which, at hNAMPT protein, the IC50 lay in the range of 100 to 500 nM. In addition, the inhibition at 1 µM is 82% on hNAMPT protein and -1% in the assay with PC3 cells.
Taken in the same sequence, the figures for `O=C(NCCc1c[nH]cn1)c1ccc2nc(-c3ccc(F)cc3)c(-c3ccc(F)cc3)nc2c1` [Compound I-20, 2,3-bis(4-fluorophenyl)-N-[2-(1H-imidazol-4-yl)ethyl]quinoxaline-6-carboxamide] were 1000 to 2000 nM, 42% and 111%.
For `Cn1cc2c(n1)CN(C(=O)c1ccc3nc(-c4ccc(F)cc4)c(-c4ccc(F)cc4)nc3c1)CC2` [Compound I-22, [2,3-bis(4-fluorophenyl)quinoxalin-6-yl](2-methyl-2,4,5,7-tetrahydro-6H-pyrazolo[3,4-c]pyridin-6-yl)methanone] the same measures were 1000 to 2000 nM, 41% and 96%.
On to `O=C(NCCCc1ncc[nH]1)c1ccc2nc(N3CCC(N4CCOCC4)CC3)c(-c3ccc(F)cc3)nc2c1` [Compound I-23, 3-(4-fluorophenyl)-N-[3-(1H-imidazol-2-yl)propyl]-2-[4-(morpholin-4-yl)piperidin-1-yl]quinoxaline-6-carboxamide], for which, at hNAMPT protein, the concentration for half-maximal inhibition (IC50) is under 100 nM and the inhibition at 1 µM came to 100%. Moreover, the inhibition at 1.667 µM with PC3 cells came out at 2%.
For the compound `Cc1nc(C)c(-c2nc3ccc(C(=O)NCCCn4ccnc4)cc3nc2-c2ccccc2)s1` [Compound I-24, 2-(2,4-dimethyl-1,3-thiazol-5-yl)-N-[3-(1H-imidazol-1-yl)propyl]-3-phenylquinoxaline-6-carboxamide], at hNAMPT protein, the IC50 lay in the range of 100 to 500 nM. Besides, the results for the inhibition at 1 µM on hNAMPT protein and in the assay on PC3 cells were 88% and -8%, respectively.
In the case of `O=C(NCCCc1cccnc1)c1ccc2nc(N3CCC(O)CC3)c(-c3ccc(F)cc3)nc2c1` [Compound I-25, 3-(4-fluorophenyl)-2-(4-hydroxypiperidin-1-yl)-N-[3-(pyridin-3-yl)propyl]quinoxaline-6-carboxamide], at hNAMPT protein, the IC50 is under 100 nM and the inhibition at 1 µM came out at 98%. In addition, the inhibition at 1.667 µM in the assay with PC3 cells turned out to be 2%.
Take `Cc1nccn1CCNC(=O)c1ccc2nc(-c3ccc(F)cc3)c(-c3ccc(F)cc3)nc2c1` [Compound I-26, 2,3-bis(4-fluorophenyl)-N-[2-(2-methyl-1H-imidazol-1-yl)ethyl]quinoxaline-6-carboxamide]: on hNAMPT protein, the half-maximal inhibitory concentration (IC50) fell in the range of 1000 to 2000 nM and the inhibition at 1 µM came out at 37%. In the assay on PC3 cells, the inhibition at 1 µM was determined as 99%.
Taken in the same sequence, the figures for `CC(C)(C)OC(=O)NCC1CCN(C2CCN(c3nc4ccc(C(=O)NCCCn5ccnc5)cc4nc3-c3ccccc3)CC2)CC1` [Compound I-27, tert-butyl{[1′-(6-{[3-(1H-imidazol-1-yl)propyl]carbamoyl}-3-phenylquinoxalin-2-yl)-1,4′-bipiperidin-4-yl]methyl}carbamate] were under 100 nM, 102% and -1%.
